# Measurements reported in patent publication US20230390416A1, “COMPOSITIONS FOR INDUCING TUMOR IMMUNITY AND REDUCING DRUG TOLERANCE” (The Brigham and Women's Hospital, Inc., priority 2020, published 2023).
# Columns and labels:
# [1] = clinical Cmax from published literature; used as ex vivo treatment concentration, 72 hours; cited from earlier work
# [2] = NPs exemplified in U.S. Pat. No. 10,300,143; cited from earlier work
# SUM 159 DTCCs = experiment: MICA/B expression by flow cytometry in DTCCs under Hsp90 inhibitors; type: cell-based, human; conditions: % MICA/B positively expressing cells, vehicle 30.6 ± 0.9
# Procedure: (§1) Two schedules of drugs in combination were administered to the indicated TNBC parental cell lines (A). […] Plots generated using constant ratio drug combination. […] N=11 in biological replicate. • (D) Quantification of MICA/B mean fluorescence, corrected for background by negative control. […] N≥4 in biological replicate. • (I) In vitro drug synergy was determined using the Chau-Talalay method. Two schedules of drugs in combination were administered to the indicated TNBC parental cell lines (A). […] Plots generated using constant ratio drug combination. Values falling below 1.0 combination index=synergy. • (J) In silico prediction model of drug schedule on signaling pathways. […] The first drug was administered at the beginning of the experiment (t=0), followed by the second drug after 48 h (t=48). […] GAPDH loading control.
# (§2) Human MDA-MB-231, MDA-MB-468, MDA-MB-436, MCF-7, mammary carcinoma 4T-1 cells (ATCC) and SUM159 (Bioivt) were purchased in the last 10 years and cultured in 10% fetal bovine serum in DMEM or RPMI media (Invitrogen, Carlsbad CA, USA). Cell lines were validated for absence of mycoplasma prior to use, by the sourcing agency. Cells were used within 10 passages from frozen stock vials obtained from the sourcing agency.
# MDA-MB-468 DTCCs = experiment: as above; type: cell-based, human; conditions: % MICA/B positively expressing cells, vehicle 54.7 ± 3.9
# Procedure: as §1, §2
# MDA-MB-231 DTCCs [3] = experiment: as above; type: cell-based, human; conditions: % MICA/B positively expressing cells, overnight (radicicol 5 μM, FIG. 3C), vehicle 76.2 ± 1.1
# Procedure: as §1, §2
# DTCCs = experiment: Western blot of DTCCs after transient exposure to Rad-NP or radicicol free drug; type: cell-based; conditions: 4 hours exposure, wash-out; in most cases
# Procedure: Protein samples were resolved by SDS-PAGE and transferred to PVDF membranes prior to incubation at 4° C. with indicated primary antibodies, mTOR and pMTOR^Ser2448, pAKT^Thr308 and AKT, Phospho-p44/42 MAPK (Erk1/2)^Thr202/Tyr204, p44/42 MAPK (Erk1/2) pPRAS40^Thr246 pSTAT3^Tyr705, STAT3, PRAS40 and β-Actin antibodies were purchased from Cell Signaling Technology, pHck^Tyr410 (Thermo Fisher Scientific) MICA/B (R&D Systems, Minneapolis, MN) and HSF-1 and HSF-1^Ser326 (abcam).
# MDA-MB-231 DTCCs [4] = experiment: Fluorescent lipid uptake by flow cytometry, DTCCs vs DNCCs; type: cell-based, human; conditions: for uptake into DTCCs vs. DNCCs: fluorescently labeled lipids, flow cytometry
# MDA-MB-468 = experiment: as above; type: cell-based, human; conditions: multiple TNBC cell lines using epithelial-like MDA-MB-468
compound,measurement,setting,value
N.N.O=C([O-])C1(C(=O)[O-])CCC1.[Pt+2] [Carboplatin],Cmax (concentration used),[1],37100 ng/mL
CC(=O)O[C@H]1C(=O)[C@@]2(C)[C@H]([C@H](OC(=O)c3ccccc3)[C@]3(O)C[C@H](OC(=O)[C@H](O)[C@@H](NC(=O)c4ccccc4)c4ccccc4)C(C)=C1C3(C)C)[C@]1(OC(C)=O)CO[C@@H]1C[C@@H]2O [Paclitaxel],Cmax,[1],6.91 µM
Oc1cccc(-c2nc(N3CCOCC3)c3oc4ncccc4c3n2)c1 [PI-103],incorporation efficiency,[2],55-65%
Nc1ccc(-c2cccc3c(=O)cc(N4CCOCC4)oc23)cc1 [PI-828],incorporation efficiency,[2],~40%
"CC(=O)O[C@@]12CO[C@@H]1C[C@H](O)[C@@]1(C)C(=O)[C@H](O)C3=C(C)[C@@H](OC(=O)[C@H](O)[C@@H](NC(=O)OC(C)(C)C)c4ccccc4)C[C@@](O)([C@@H](OC(=O)c4ccccc4)[C@H]21)C3(C)C [Docetaxel, docetaxel]",active form of HSF-1 (Ser326),"Hsp90; parental MDA-MB-231 cells under docetaxel drug pressure, western blot",induced the active form of HSF-1 (Ser326)
same,Cmax (concentration used),[1],2000 ng/mL
Pembrolizumab: clinically-approved anticancer drug,Cmax (concentration used),[1],65700 ng/mL
Nc1ccn([C@@H]2O[C@H](CO)[C@@H](O)C2(F)F)c(=O)n1 [Gemcitabine],Cmax (concentration used),[1],22300 ng/mL
"CC(C)c1cc(-c2n[nH]c(=O)n2-c2ccc3c(ccn3C)c2)c(O)cc1O [Ganetespib, ganetespib]",MICA (%) ± SEM,SUM 159 DTCCs,35.4 ± 6.0%
same,MICA (%) ± SEM,MDA-MB-468 DTCCs,70.1 ± 3.0%
same,MICA (%) ± SEM,MDA-MB-231 DTCCs [3],82.5 ± 2.2%
C=C1C[C@@H]2CC[C@@]34C[C@H]5O[C@H]6[C@@H](O3)[C@H]3O[C@H](CC[C@@H]3O[C@H]6[C@H]5O4)CC(=O)C[C@@H]3[C@@H](OC)[C@@H](C[C@H](O)CN)O[C@H]3C[C@H]3O[C@@H](CC[C@@H]1O2)C[C@@H](C)C3=C [Eribulin],Cmax (concentration used),[1],371 ng/mL
CC(C)NCCCn1c(Sc2cc3c(cc2I)OCO3)nc2c(N)ncnc21 [PU-H71],cytoplasmic sequestration of HSF-1 Ser326 and activation of pro-survival proteins,"Hsp90; DTCCs, confocal microscopy and western blot",reversed cytoplasmic sequestration of HSF-1^Ser326 and activation of pro-survival proteins
same,MICA (%) ± SEM,SUM 159 DTCCs,33.3 ± 4.1%
same,MICA (%) ± SEM,MDA-MB-468 DTCCs,71.9 ± 4.2%
same,MICA (%) ± SEM,MDA-MB-231 DTCCs [3],79.5 ± 0.4%
"C[C@@H]1C[C@H]2O[C@@H]2/C=C\C=C\C(=O)Cc2c(Cl)c(O)cc(O)c2C(=O)O1 [Radicicol, radicicol]",time of rescue of signaling disruption,DTCCs,≤ 36 h
"CCCCCCCC/C=C\CCCCCCCC(=O)OC[C@H](COP(=O)(O)O)OC(=O)CCCCCCCCCCCNc1ccc([N+](=O)[O-])c2nonc12.N.N [phosphatidic acid (PA), 1-oleoyl-2-{12-[(7-nitro-2-1,3-benzoxadiazol-4-yl)amino]dodecanoyl}-sn-glycero-3-phosphate (ammonium salt)]",uptake into DTCCs vs. DNCCs,MDA-MB-231 DTCCs [4],to a lesser degree
CCC1=C[C@@H]2CN(C1)Cc1c([nH]c3ccccc13)[C@@](C(=O)OC)(c1cc3c(cc1OC)N(C)[C@H]1[C@@](O)(C(=O)OC)[C@H](OC(C)=O)[C@]4(CC)C=CCN5CC[C@]31[C@@H]54)C2 [Vinorelbine],Cmax (concentration used),[1],126.6 ng/mL
"CCCCCCCC/C=C\CCCCCCCC(=O)OC[C@H](COP(=O)([O-])OCC[N+](C)(C)C)OC(=O)CCCCCNc1ccc([N+](=O)[O-])c2nonc12 [phosphatidylcholine (PC), 1-oleoyl-2-{6-[(7-nitro-2-1,3-benzoxadiazol-4-yl)amino]hexanoyl}-sn-glycero-3-phosphocholine]",specificity of binding to DTCCs,MDA-MB-468,bound with the highest degree of specificity
same,rate of internalization in DTCC vs DNCC,MDA-MB-231 DTCCs [4]; checked at definite time intervals,higher rate of internalization
same,uptake into DTCCs vs. DNCCs,MDA-MB-231 DTCCs [4],significantly increased uptake into DTCCs vs. DNCCs
CCCCCOC(=O)Nc1nc(=O)n([C@@H]2O[C@H](C)[C@@H](O)[C@H]2O)cc1F [Capecitabine],Cmax (concentration used),[1],3900 ng/mL
C/C(=C\c1csc(C)n1)[C@@H]1C[C@@H]2O[C@]2(C)CCC[C@H](C)[C@H](O)[C@@H](C)C(=O)C(C)(C)[C@@H](O)CC(=O)N1 [Ixabepilone],Cmax (concentration used),[1],252 ng/mL
"CC(CCC[C@@H](C)[C@@H]1CC[C@H]2[C@@H]3CC=C4C[C@@H](O)CC[C@]4(C)[C@H]3CC[C@@]21C)N(C)c1ccc([N+](=O)[O-])c2nonc12 (some centres unmarked) [cholesterol, 25-[N-[(7-nitro-2-1,3-benzoxadiazol-4-yl)methyl]amino]-27-norcholesterol]",specificity of binding to DTCCs,MDA-MB-468,bound with the highest degree of specificity
same,uptake into DTCCs vs. DNCCs,MDA-MB-231 DTCCs [4],significantly increased uptake into DTCCs vs. DNCCs
